Blank lines part the entries; values can stand above or below the compound they belong to.
Test: Particle size distribution by laser diffraction (Sympatec, Fraunhofer mode)
Type: physicochemical
Conditions: for optical diameter that 50% by volume of the micronized particles are smaller than / optical diameter that 90% by volume of the micronized particles are smaller than: micronized active agent particles
[1] = Example 10, Table 12, Triple TFM primary particle size
[2] = Example 4, Table 2, micronized API
[3] = Example 9, Table 9, primary particle size
[4] = Example 10, Table 11, Triple GFM primary particle size

Compound: C[N+]1(C)[C@@H]2C[C@@H](OC(=O)C(O)(c3cccs3)c3cccs3)C[C@H]1[C@@H]1O[C@@H]12 [Micronized Tiotropium Bromide Anhydrous, tiotropium bromide]
- Span [1]: 2.7
- d10 (μm) [1]: 0.5 μm
- d50 (μm) [1]: 1.3 μm
- d90 (μm) [1]: 3.9 μm

Compound: COc1ccc(C[C@@H](C)NC[C@H](O)c2ccc(O)c(NC=O)c2)cc1 (racemic) [FF API, (±)-2-hydroxy-5-[(1RS)-1-hydroxy-2-[[(1RS)-2-(4-methoxyphenyl)-1-methylethyl]-amino]ethyl]formanilide]
- Span [3]: 1.8
- Span [4]: 1.9
- Span [1]: 1.9
- Span (Example 11, Table 14): 1.8

Compound: COc1ccc(C[C@@H](C)NC[C@H](O)c2ccc(O)c(NC=O)c2)cc1 (racemic) [Coarse FF API, (±)-2-hydroxy-5-[(1RS)-1-hydroxy-2-[[(1RS)-2-(4-methoxyphenyl)-1-methylethyl]-amino]ethyl]formanilide]
- Span [2]: 2.0

Compound: OCc1cc(C(O)CNCCCCCCOCCCCc2ccccc2)ccc1O (stereo not drawn) [SX, 4-hydroxy-α1-[[[6-(4-phenylbutoxy)hexyl]amino]methyl]-1,3-benzenedimethanol, 1-hydroxy-2-naphthalenecarboxylate]
- optical diameter that 50% by volume of the micronized particles are smaller than: 2 μm
- optical diameter that 90% by volume of the micronized particles are smaller than: 3.9 μm

More lines, now with the values ahead:

- Span [2]: 1.5
- d90 (μm) [2]: 2.3 μm
Compound: COc1ccc(C[C@@H](C)NC[C@H](O)c2ccc(O)c(NC=O)c2)cc1 (racemic) [Fine FF API, (±)-2-hydroxy-5-[(1RS)-1-hydroxy-2-[[(1RS)-2-(4-methoxyphenyl)-1-methylethyl]-amino]ethyl]formanilide]

- Span [3]: 2.2
- ×10 (μm) [3]: 0.4 μm
- ×50 (μm) [3]: 1.1 μm
- ×90 (μm) [3]: 2.8 μm
- Span [4]: 1.9
- d10 (μm) [4]: 0.4 μm
- d50 (μm) [4]: 1.0 μm
- d90 (μm) [4]: 2.3 μm
- Span [1]: 2.2
- d10 (μm) [1]: 0.4 μm
- d50 (μm) [1]: 1.1 μm
- d90 (μm) [1]: 2.8 μm
- optical diameter that 50% by volume of the micronized particles are smaller than: 1.6 μm
- optical diameter that 90% by volume of the micronized particles are smaller than: 3.5 μm
Compound: C[C@@H]1C[C@H]2[C@@H]3CCC4=CC(=O)C=C[C@]4(C)[C@@]3(Cl)[C@@H](O)C[C@]2(C)[C@@]1(OC(=O)c1ccco1)C(=O)CCl [MF, 9α,21-dichloro-11β,17-dihydroxy-16α-methylpregna-1,4-diene-3,20-dione 17-(2-furoate)]

- optical diameter that 50% by volume of the micronized particles are smaller than: 2.6 μm
- optical diameter that 90% by volume of the micronized particles are smaller than: 6.6 μm
Compound: CCC(=O)O[C@]1(C(=O)SCF)[C@H](C)C[C@H]2[C@@H]3C[C@H](F)C4=CC(=O)C=C[C@]4(C)[C@@]3(F)[C@@H](O)C[C@@]21C [FP, S-(fluoromethyl)6^α,9-difluoro-11^β-17-dihydroxy-16^α-methyl-3-oxoandrosta-1,4-diene-17^β-carbothioate, 17-propionate]
